Test results reported in patent publication US7709498B2, “Quinoline derivatives as antibacterial agents” (Janssen Pharmaceutica N.V., priority 2005, dated 2010).
≈ marks a conversion by molar mass, not a printed value.

Assays:
Type in all cases: cell-based
[1] = test system: Bacillus subtilis (ATCC43639); assay: Microtitre plate assay, IC90 determination, BSU 43639; conditions: 90% inhibitory concentration for bacterial growth, 37° C., resazurin fluorescence; for IC90: Bacillus subtilis, ATCC43639, 24 h, read-out: IC90 (μg/ml) BSU 43639
Method: (§1) The bacteria used in this study were grown overnight in flasks containing 100 ml Mueller-Hinton Broth (Becton Dickinson—cat. no. 275730) in sterile de-ionized water, with shaking, at 37° C. Stocks (0.5 ml/tube) were stored at −70° C. until use. Bacteria titrations were performed in microtiter plates to detect the TCID50, in which the TCID50 represents the dilution that gives rise to bacterial growth in 50% of inoculated cultures.
(§2) In general, an inoculum level of approximately 100 TCID50 was used for susceptibility testing.
(§3) Flat-bottom, sterile 96-well plastic microtiter plates were filled with 180 μl of sterile deionized water, supplemented with 0.25% BSA. Subsequently, stock solutions (7.8× final test concentration) of compounds were added in 45 μl volumes in column 2. Serial five-fold dilutions (45 μl in 180 μl) were made directly in the microtiter plates from column 2 to reach column 11. Untreated control samples with (column 1) and without (column 12) inoculum were included in each microtiter plate. Depending on the bacteria type, approximately 10 to 60 CFU per well of bacteria inoculum (100 TCID50), in a volume of 100 μl in 2.8× Mueller-Hinton broth medium, was added to the rows A to H, except column 12. The same volume of broth medium without inoculum was added to column 12 in row A to H. The cultures were incubated at 37° C. for 24 hours under a normal atmosphere (incubator with open air valve and continuous ventilation). At the end of incubation, one day after inoculation, the bacterial growth was quantitated fluorometrically. Therefore resazurin (0.6 mg/ml) was added in a volume of 20 μl to all wells 3 hours after inoculation, and the plates were re-incubated overnight. A change in colour from blue to pink indicated the growth of bacteria. The fluorescence was read in a computer-controlled fluorometer (Cytofluor Biosearch) at an excitation wavelength of 530 nm and an emission wavelength of 590 nm. The % growth inhibition achieved by the compounds was calculated according to standard methods. The IC90 (expressed in μg/ml) was defined as the 90% inhibitory concentration for bacterial growth.
(§4) BSU 3639 means Bacillus subtilis (ATCC43639); ECO 25922 means Escherichia coli (ATCC25922); EFA 14506 means Enterococcus faecalis (ATCC14506); EFA 29212 means Enterococcus faecalis (ATCC29212); LMO 49594 means Listeria monocytogenes (ATCC49594); PAE 27853 means Pseudomonas aeruginosa (ATCC27853); SMU 33402 means Streptococcus mutans (ATCC33402); SPN 6305 means Streptococcus pneumoniae (ATCC6305); SPY 8668 means Streptococcus pyogens (ATCC8668); STA 43300 means Staphylococcus aureus (ATCC43300); STA 25923 means Staphylococcus aureus (ATCC25923); STA 29213 means Staphylococcus aureus (ATCC29213); STA RMETH means methicilline resistant Staphylococcus aureus (MRSA) (a clinical isolate from the University of Antwerp). ATCC means American type tissue culture.

[2] = test system: Enterococcus faecalis (ATCC29212); assay: Microtitre plate assay, IC90 determination, EFA 29212; conditions: 90% inhibitory concentration for bacterial growth, 37° C., resazurin fluorescence; for IC90 (μg/ml) EFA 29212: 24 hours; for IC90: Enterococcus faecalis, ATCC29212, 24 h, read-out: IC90 (μg/ml) EFA 29212
Method: as §1, §2, §3, §4

[3] = test system: Pseudomonas aeruginosa (ATCC27853); assay: Microtitre plate assay, IC90 determination, PAE 27853; conditions: 90% inhibitory concentration for bacterial growth, 37° C., resazurin fluorescence; for IC90 (μg/ml) PAE 27853: 24 hours
Method: as §1, §2, §3, §4

[4] = test system: Streptococcus mutans (ATCC33402); assay: Microtitre plate assay, IC90 determination, SMU 33402; conditions: 90% inhibitory concentration for bacterial growth, 37° C., resazurin fluorescence; for IC90 (μg/ml) SMU 33402: 24 hours
Method: as §1, §2, §3, §4

[5] = test system: Listeria monocytogenes (ATCC49594); assay: Microtitre plate assay, IC90 determination, LMO 49594; conditions: 90% inhibitory concentration for bacterial growth, 37° C., resazurin fluorescence; for IC90 (μg/ml) LMO 49594: 24 hours
Method: as §1, §2, §3, §4

[6] = test system: Streptococcus pneumoniae (ATCC6305); assay: Microtitre plate assay, IC90 determination, SPN 6305; conditions: 90% inhibitory concentration for bacterial growth, 37° C., resazurin fluorescence; for IC90 (μg/ml) SPN 6305: 24 hours; for IC90: Streptococcus pneumoniae, ATCC6305, 24 h, read-out: IC90 (μg/ml) SPN 6305
Method: as §1, §2, §3, §4

[7] = test system: Enterococcus faecalis (ATCC14506); assay: Microtitre plate assay, IC90 determination, EFA 14506; conditions: 90% inhibitory concentration for bacterial growth, 37° C., resazurin fluorescence; for IC90: Enterococcus faecalis, ATCC14506, 24 h, read-out: IC90 (μg/ml) EFA 14506
Method: as §1, §2, §3, §4

[8] = test system: Streptococcus pyogens (ATCC8668); assay: Microtitre plate assay, IC90 determination, SPY 8668; conditions: 90% inhibitory concentration for bacterial growth, 37° C., resazurin fluorescence; for IC90 (μg/ml) SPY 8668: 24 hours
Method: as §1, §2, §3, §4

[9] = test system: Staphylococcus aureus (ATCC43300); assay: Microtitre plate assay, IC90 determination, STA 43300; conditions: 90% inhibitory concentration for bacterial growth, 37° C., 24 hours, resazurin fluorescence
Method: as §1, §2, §3, §4

[10] = test system: methicilline resistant Staphylococcus aureus (MRSA) (a clinical isolate from the University of Antwerp); assay: Microtitre plate assay, IC90 determination, STA RMETH; conditions: 90% inhibitory concentration for bacterial growth, 37° C., resazurin fluorescence; for IC90: Staphylococcus aureus, MRSA, 24 h, read-out: IC90 (μg/ml) STA RMETH
Method: as §1, §2, §3, §4

[11] = test system: Escherichia coli (ATCC25922); assay: Microtitre plate assay, IC90 determination, ECO 25922; conditions: 90% inhibitory concentration for bacterial growth, 37° C., 24 hours, resazurin fluorescence, read-out: IC90 (μg/ml) ECO 25922
Method: as §1, §2
(§5) Flat-bottom, sterile 96-well plastic microtiter plates were filled with 180 μl of sterile deionized water, supplemented with 0.25% BSA. Subsequently, stock solutions (7.8× final test concentration) of compounds were added in 45 μl volumes in column 2. Serial five-fold dilutions (45 μl in 180 μl) were made directly in the microtiter plates from column 2 to reach column 11. Untreated control samples with (column 1) and without (column 12) inoculum were included in each microtiter plate. […] At the end of incubation, one day after inoculation, the bacterial growth was quantitated fluorometrically. […] The fluorescence was read in a computer-controlled fluorometer (Cytofluor Biosearch) at an excitation wavelength of 530 nm and an emission wavelength of 590 nm. The % growth inhibition achieved by the compounds was calculated according to standard methods. […]

[12] = test system: Staphylococcus aureus (ATCC25923); assay: Microtitre plate assay, IC90 determination, STA 25923; conditions: 90% inhibitory concentration for bacterial growth, 37° C., resazurin fluorescence; for IC90: Staphylococcus aureus, ATCC25923, 24 h, read-out: IC90 (μg/ml) STA 25923
Method: as §1, §2, §3, §4

[13] = test system: Staphylococcus aureus (ATCC29213); assay: Microtitre plate assay, IC90 determination, STA 29213; conditions: 90% inhibitory concentration for bacterial growth, 37° C., 24 hours, resazurin fluorescence, read-out: IC90 (μg/ml) STA 29213
Method: as §1, §2, §5

| Structure (SMILES) | IC90 (μg/ml) SMU 33402 [4] [µg/mL] | IC90 (μg/ml) LMO 49594 [5] [µg/mL] | IC90 (μg/ml) SPN 6305 [6] [µg/mL] | IC90 (μg/ml) SPY 8668 [8] [µg/mL] | IC90 (μg/ml) STA 43300 [9] [µg/mL] | IC90 [1] [µg/mL] | IC90 [7] [µg/mL] | also measured |
| --- | --- | --- | --- | --- | --- | --- | --- | --- |
| COc1nc2ccc(Br)cc2cc1C(c1ccccc1)C(O)(CCN(C)C)c1cccc2ccccc12 (stereo not shown) [Compound 15] | 12.4 (≈ 22.3 µM) | 2.5 (≈ 4.5 µM) | 6.2 (≈ 11.2 µM) | 2.2 (≈ 3.96 µM) | 5.0 (≈ 9 µM) |  |  | IC90 (μg/ml) BSU 43639 ([1]; 24 hours): 24.8 µg/mL (≈ 44.6 µM); IC90 (μg/ml) EFA 29212 [2]: 5.0 µg/mL (≈ 9 µM); IC90 (μg/ml) PAE 27853 [3]: 12.4 µg/mL (≈ 22.3 µM); IC90 (μg/ml) EFA 14506 ([7]; 24 hours): 24.8 µg/mL (≈ 44.6 µM) |
| CSc1nc2ccc(Br)cc2cc1C(c1ccccc1)C(O)(CCN(C)C)c1ccccc1 (stereo not shown) [Compound 32] | 4.6 (≈ 8.82 µM) |  | 13.1 (≈ 25.1 µM) |  | 13.1 (≈ 25.1 µM) |  |  | IC90 [2]: 4.6 µg/mL (≈ 8.82 µM); IC90 ([3]; Pseudomonas aeruginosa, ATCC27853, 24 h, read-out: IC90 (μg/ml) PAE 27853): 10.4 µg/mL (≈ 19.9 µM); IC90 [10]: 13.1 µg/mL (≈ 25.1 µM); IC90 [11]: 11.7 µg/mL (≈ 22.4 µM); IC90 [12]: 9.3 µg/mL (≈ 17.8 µM); IC90 ([5]; Listeria monocytogenes, ATCC49594, 24 h, read-out: IC90 (μg/ml) LMO 49594): 4.6 µg/mL (≈ 8.82 µM); IC90 ([8]; Streptococcus, ATCC8668, 24 h, read-out: IC90 (μg/ml) SPY 8668): 4.6 µg/mL (≈ 8.82 µM) |
| CSc1nc2ccc(Br)cc2cc1C(c1ccccc1)C(O)(CCN(C)C)c1ccccc1 (stereo not shown) [Compound 33] | 10.4 (≈ 19.9 µM) | 2.3 (≈ 4.41 µM) | 5.9 (≈ 11.3 µM) | 2.6 (≈ 4.99 µM) | 5.9 (≈ 11.3 µM) | 10.4 (≈ 19.9 µM) | 11.7 (≈ 22.4 µM) | IC90 (μg/ml) EFA 29212 [2]: 4.6 µg/mL (≈ 8.82 µM); IC90 (μg/ml) PAE 27853 [3]: 11.7 µg/mL (≈ 22.4 µM); IC90 (μg/ml) STA 25923 ([12]; 24 hours): 13.1 µg/mL (≈ 25.1 µM) |
| COc1nc2ccc(Br)cc2cc1C(c1ccccc1)C(O)(CCN(C)C)c1ccc2ccccc2c1 (stereo not shown) [Compound 45] |  |  |  |  |  | 11.1 (≈ 20 µM) | 12.4 (≈ 22.3 µM) |  |
| COc1nc2ccc(Br)cc2cc1C(c1ccccc1)C(O)(CCn1ccnc1)c1ccccc1 (stereo not shown) [Compound 49] |  | 10.5 (≈ 19.9 µM) |  | 10.5 (≈ 19.9 µM) |  |  |  | IC90 [10]: 11.8 µg/mL (≈ 22.3 µM); IC90 ([4]; Streptococcus mutans, ATCC33402, 24 h, read-out: IC90 (μg/ml) SMU 33402): 10.5 µg/mL (≈ 19.9 µM); IC90 [12]: 5.9 µg/mL (≈ 11.2 µM); IC90 [6]: 13.3 µg/mL (≈ 25.2 µM) |
| COc1nc2ccc(Br)cc2cc1C(c1ccccc1)C(O)(CCn1ccnc1)c1ccccc1 (stereo not shown) [Compound 50] | 21.0 (≈ 39.7 µM) | 23.6 (≈ 44.7 µM) |  | 26.5 (≈ 50.1 µM) |  | 10.5 (≈ 19.9 µM) |  | IC90 [2]: 10.5 µg/mL (≈ 19.9 µM); IC90 (μg/ml) STA RMETH ([10]; 24 hours): 10.5 µg/mL (≈ 19.9 µM); IC90 [13]: 26.5 µg/mL (≈ 50.1 µM) |
| COc1nc2ccc(Br)cc2cc1C(c1ccccc1)C(O)(CCN1CCCCC1)c1cccc2ccccc12 (stereo not shown) [Compound 145] |  |  |  |  |  |  | 23.7 (≈ 39.8 µM) | IC90 [6]: 9.4 µg/mL (≈ 15.8 µM) |
